Where two headings read alike, the source gives them in different places.
Key:
doxorubicin injured mice [1] = details: ten weeks after initiation of doxorubicin treatment
Method: (§1) After the completion of doxorubicin treatment, mice were subsequently treated with either Lapatinib alone (100 mg/kg, oral gavage, daily) or Rapamycin alone (6 mg/kg, i.p., daily). Survival was monitored. Cardiac function was assessed by hemodynamic measurements.

doxorubicin treated mice [2] = test system: doxorubicin treated mice
doxorubicin injured mice [3] = experiment: Cardiac output by hemodynamic measurements in doxorubicin injured mice treated with Lapatinib or Rapamycin; assay type: in vivo
Method: as §1

doxorubicin treated mice [4] = experiment: Echocardiography of doxorubicin and doxorubicin+lapatinib treated mice; details: FIG. 3
Method: (§2) Female FVB/n mice between 10 and 12 weeks old were treated with doxorubicin (2 mg/kg) by intraperitoneal injection (i.p.) twice a week for 7 weeks. […] After completion of the doxorubicin treatment cycle, the mice were subsequently treated with various doses of lapatinib (25, 50, and 100 mg/kg, given by oral gavage, daily) or with vehicle control.
(§3) Cardiac function of the doxorubicin and doxorubicin+lapatinib treated mice was evaluated by echocardiography.

doxorubicin treated mice [5] = experiment: Hemodynamic measurements (dP/dtmax, dP/dtmin) in doxorubicin and doxorubicin+lapatinib treated mice; details: FIG. 4
Method: as §2, §3

[6] = test system: doxorubicin+BEZ235 treated mice; experiment: Echocardiography and heart/lung weight ratios in mice co-treated with doxorubicin, BEZ235 and lapatinib; details: lapatinib co-treatment of doxorubicin+BEZ235 treated mice; FIG. 6
Method: FVB/n female mice were treated with doxorubicin (2 mg/kg, i.p.) twice a week, PI3 kinase-mTOR inhibitor BEZ235 (35-50 mg/kg, oral, daily) and lapatinib (25, 50 or 100 mg/kg, oral, daily). Cardiac function was monitored by echocardiography.

[7] = nine weeks after initiation of doxorubicin treatment, doxorubicin treated versus control mice
[8] = doxorubicin treated vs. control mice
[9] = three weeks after initiation of lapatinib treatment, doxorubicin+lapatinib vs doxorubicin treated mice
[10] = doxorubicin+lapatinib treated vs control mice

Molecule `CO[C@H]1C[C@@H]2CC[C@@H](C)[C@@](O)(O2)C(=O)C(=O)N2CCCC[C@H]2C(=O)O[C@H]([C@H](C)C[C@@H]2CC[C@@H](O)[C@H](OC)C2)CC(=O)[C@H](C)/C=C(\C)[C@@H](O)[C@@H](OC)C(=O)[C@H](C)C[C@H](C)/C=C/C=C/C=C/1C` [Rapamycin] has a survival (doxorubicin injured mice [1]; Rapamycin 6 mg/kg i.p. daily after doxorubicin) of 63%.
For `COc1cccc2c1C(=O)c1c(O)c3c(c(O)c1C2=O)C[C@@](O)(C(=O)CO)C[C@@H]3O[C@H]1C[C@H](N)[C@H](O)[C@H](C)O1` [doxorubicin], the survival (doxorubicin treated mice [2]; 64 days after initiation of doxorubicin treatment, doxorubicin 2 mg/kg i.p. twice a week for 7 weeks, then vehicle control, female FVB/n mice) was 68%, the survival (doxorubicin treated mice [2]; 70 days after initiation of doxorubicin treatment, doxorubicin 2 mg/kg i.p. twice a week for 7 weeks, then vehicle control) was 34% and the survival (doxorubicin injured mice [1]; Solvent treated doxorubicin injured mice (doxorubicin 2 mg/kg i.p. twice a week for 7 weeks)) was 43%. For the same molecule, the cardiac output (doxorubicin injured mice [3]; Solvent treated doxorubicin injured mice vs. non-treated control mice, ten weeks) was “significantly decreased”, the EF % (doxorubicin treated mice [4]; [7]) was “decreased” and the ESV (doxorubicin treated mice [4]; [7]) was “significantly increased”. For the same molecule, the dP/dtmax (doxorubicin treated mice [5]; [8]) was “significantly decreased” and the dP/dtmin (doxorubicin treated mice [5]; [8]) was “significantly decreased”.
In the case of `CS(=O)(=O)CCNCc1ccc(-c2ccc3ncnc(Nc4ccc(OCc5cccc(F)c5)c(Cl)c4)c3c2)o1` [lapatinib, N-[3-chloro-4-[(3-fluorophenyl)methoxy]phenyl]-6-[5-[(2-methylsulfonylethylamino)methyl]-2-furyl]quinazolin-4-amine], the survival (doxorubicin treated mice [2]; 64 days after initiation of doxorubicin treatment, lapatinib 25 mg/kg oral gavage daily after the doxorubicin cycle) is reported as 100%, the survival (doxorubicin treated mice [2]; 64 days after initiation of doxorubicin treatment, lapatinib 50 mg/kg oral gavage daily after the doxorubicin cycle) is reported as 83% and the survival (doxorubicin treated mice [2]; 64 days after initiation of doxorubicin treatment, lapatinib 100 mg/kg oral gavage daily after the doxorubicin cycle) is reported as 71%. For the same molecule, the survival (doxorubicin treated mice [2]; 70 days after initiation of doxorubicin treatment, lapatinib 100 mg/kg oral gavage daily after the doxorubicin cycle) was 55%, the “survival of doxorubicin treated mice (FIG. 1)” value (doxorubicin treated mice [2]; lapatinib 25, 50 and 100 mg/kg oral gavage daily vs vehicle control) was “improved survival” and the survival (doxorubicin injured mice [1]; Lapatinib 100 mg/kg oral gavage daily after doxorubicin) was 71%. The cardiac output (doxorubicin injured mice [3]; Lapatinib (100 mg/kg oral daily) treated doxorubicin injured mice vs. non-treated control mice) was “No difference”, the EF % (doxorubicin treated mice [4]; [9]) was “reversed these effects” and the ESV (doxorubicin treated mice [4]; [9]) was “reversed these effects”. For the same molecule, the dP/dtmax (doxorubicin treated mice [5]; [10]) was “not different”, the dP/dtmin (doxorubicin treated mice [5]; [10]) was “not different” and the EF % [6] was “reversed these effects”. For the same molecule, the “end-diastolic volume (EDV)” value [6] was “reversed these effects”, the “end-systolic volume (ESV)” value [6] was “reversed these effects” and the “heart weight to body weight ratio (HW/BW)” value [6] was “reversed these effects”. The “lung to body weight ratio” value [6] was “reversed these effects” and the “relative wall thickness (RWth)” value [6] was “reversed these effects”.

— patent US9119858B2, “Compositions and methods for treating or preventing anthracycline induced cardiotoxicity” (Genesys Research Institute, priority 2012, dated 2015)
